12 compounds from patent US20100120662A1, “Glucose uptake modulator and method for treating diabetes or diabetic complications” (POSTECH Foundation, priority 2005, published 2010) can be followed below.

One assay relates to 3T3-L1 adipocytes. The assay is described as follows: [14C] 2-deoxy-D-glucose uptake in 3T3-L1 adipocytes. In kind it is cell-based. As to conditions: for effect of pretreatment on LPC-stimulated glucose uptake: then 20 μM LPC 10 min; for stimulation of glucose uptake: equimolar 20 μM, 10 min; for time and dose dependence of glucose uptake: various concentrations. The method, then:
Cell culture: 3T3-L1 fibroblasts were grown to confluence in DMEM containing a high glucose concentration, 10% fetal bovine serum, 50 U of penicillin per ml, and 50 ug of streptomycin per ml and maintained in a 5% CO2 humidified atmosphere at 37° C. 3T3-L1 was induced to differentiate into adipocytes, as described previously (van den Berghe, N., et al., Mol Cell Biol 14, pp. 2372-2377, 1994).
Glucose uptake measurement. For measuring glucose uptake in 3T3-L1 adipocytes, cells were grown in serum-free DMEM for 16 h and then incubated in the absence or presence of insulin or lysophospholipids for the indicated times at 37° C. Uptake was measured by adding 1 μCi of [^14C] 2-deoxy-D-glucose and 3 mM 2-deoxy-D-glucose. After 10 min, the assay was terminated by two quick washes with ice-cold PBS. Cells were lysed in 0:5 ml of lysis buffer containing 0.5 N NaOH and 0.1% SDS. The cell lysates were used for liquid scintillation counting and nonspecific uptake was assayed in the presence of 10 μM cytochalasin B (van den Berghe, N., et al., Mol Cell Biol 14, pp. 2372-2377, 1994).
FIG. 2A to 2D show the effects of LPC on the glucose uptake in 3T3-L1 adipocytes. […] After these treatments, [^14C] 2-deoxy-D-glucose uptake was measured for 10 min as described in Material Methods. […] FIGS. 2C and 2D show relative [^14C] 2-deoxy-D-glucose uptake in 3T3-L1 adipocytes incubated in the absence (control) or presence of equimolar concentrations (20 μM) of myristoyl lysophosphatidylcholine (14:0 LPC), palmytoyl lysophosphatidylcholine (16:0 LPC), stearoyl lysophosphatidylcholine (18:0 LPC), palmytoyl lysophsophatidylethanolamine (16:0 LPE), palmytoyl lyso-phosphatidylinositol (16:0 LPI), palmytoyl lysophosphatidylglycerol (16:0 LPG) for 10 min. Values are mean±SE of three independent experiments performed in triplicate. *P<0.05 vs. basal.

The subject of assay [1] is male ICR mice. The assay is described as follows: Acute blood glucose lowering in normal ICR mice after intravenous lysophospholipid. The assay is classed as in vivo, mouse. To be noted: for level of blood glucose in normal mice: intravenous, 0 to 120 min after dosing.
Another assay has as its system insulin receptor (IR). The assay is described as follows: IR autophosphorylation in hIRcB cells. In kind it is cell-based, human. As to conditions: hIRcB cells. As for the experimental part:
FIG. 12A shown a comparison of insulin sensitizing effect among CRF family which was obtained by incubating cells with 1 μM CRF family and/or 2 nM insulin or with medium alone for 1 min. […] FIG. 12B was obtained by incubating cells with 2 nM insulin and variant dose of UCN (from 2 nM to 1 μM) for 1 min. FIG. 12C was obtained by incubating cells 100 nM UCN and variant dose of insulin for 1 min. Phosphorlyation of IR was assessed by western blotting with anti-pTyr antibodies. FIG. 13D was obtained by incubating cells with 100 nM UCN and/or 10 nM insulin for 0, 2, 10, 30, and 60 min, and then assessing the phosphorlyation of IR by western blotting with anti-pIR antibodies. Quantization of IR autophosphorylation was measured with image gauge software (Fuji film). The values are the mean±S.E. for three experiments. *, P<0.05
hIRcB cells were maintained in DMEM, supplemented with 10% (v/v) FBS. The cells were grown at 37° C. in a humidified atmosphere of 5% CO2 and 95% air.
After treatment of ligands as indicated time and dose, the cells were washed with cold PBS and lysed with lysis buffer (50 mM HEPES pH 7.5, 150 mM NaCl, 1%
Triton X-100, 1 mM EDTA, 10% glycerol) containing protease inhibitors (0.5 mM PMSF, 1 μg/ml leupeptin and 5 μg/ml aprotinin) and phosphatase inhibitors (30 mM NaF, 1 mM Na3VO4 and 30 mM Na4O7P2). The cell lysates were incubated for 1 hr at 4° C. After centrifugation (14,000×g for 15 min), equal amounts of soluble extract were incubated, for 4 hrs, with 5 μg of anti-IR antibody and 30 μl of resin volume of immobilized protein A. For gel electrophoresis, the precipitates were dissolved in Laemmli sample buffer. The sample was separated by SDS-PAGE and transferred to a nitrocellulose membrane (Schleicher and Schuell, BA85). Blocking was performed with TTBS buffer (10 mM Tris/HCl, pH 7.5, 150 mM NaCl, and 0.05% Tween 20) containing 5% skimmed milk powder. The membrane was probed with primary for 3 hrs at room temperature. Subsequently the immunoblot was washed and incubated with horseradish peroxidase-linked secondary antibody for 1 hr at room temperature, rinsed four times in TTBS buffer, and developed with horseradish peroxidase-dependent chemiluminescence reagents (Amersham International, United Kingdom).

The next assay has as its system IRS1 and AKT. Kind of assay: IRS1 and AKT phosphorylation in 3T3-L1 adipocytes (immunoblot). The assay is classed as cell-based. To be noted: LPA treatment of 3T3-L1 adipocytes. The method, then:
Immunoblotting. For preparing total cell lysates, 3T3-L1 adipocytes were washed with Ca^2+/Mg^2+-free PBS and then lysed in the lysis buffer (50 mM HEPES, pH 7.2, 150 mM NaCl, 50 mM NaF, 1 mM Na3VO4, 10% glycerol, 1% Triton X-100). The lysates were centrifuged at 15,000 rpm for 15 min at 4° C. The proteins were denatured by boiling in laemmli sample buffer for 5 min at 95° C., separated by SDS-PAGE. SDS-gel was transferred to nitrocellulose membrane using Hoefer wet transfer system. Membranes were blocked in TTBS (20 mM Tris-HCl, pH 7.6, 150 mM NaCl, 0.05% Tween 20) containing 5% skimmed milk powder for 30 min and then incubated with antibodies for 3 hours. After washing membranes several times with TTBS, the blots were incubated with HRP (Horseradish peroxidase)-conjugated goat anti-rabbit for 1 hour. The blots were washed with TTBS and developed by ECL.
(In general: In western blotting, separated proteins are transferred to a membrane and probed.)

Assay [2] concerns male ICR mice. Kind of assay: Serum insulin level in mice after single intravenous injection. The assay is classed as in vivo, mouse. As for the experimental part:
(§1) Animals. Male ICR mice were purchased from hyochang science (ROK). C57BLKSJ-db/db mice were purchased from SLC (Japan). After intravenous injection of LPC, blood glucose was measured regularly with a portable glucose meter (Gluco-Dr, ROK) after tail snipping. For measurement of serum insulin, blood samples of mice were determined with the insulin-RIA Kit (LINCO, Missouri). Insulin deficient mice were induced in male ICR mice by two consecutive daily intraperitoneal injection of STZ (200 mg/kg) dissolved in sodium citrate (pH 5.5). On the third day after the last STZ injection, acute glucose lowering effect was analyzed after intravenous injection of vehicle, LPC or insulin as described above.
(§2) Eight-week-old male mice were intravenously injected with PBS, insulin, LPC, or LPE. Blood glucose was monitored after dosing (0 to 120 min). […] All animals had free access to water. Animal care was in accordance with institutional guidelines. All data are shown as means±SE (n=5-6).*P<0.05.

The test system of assay [3] is STZ-treated insulin deficient ICR male mice. The assay is described as follows: Acute glucose lowering in streptozotocin (STZ)-treated insulin deficient ICR mice. In kind it is in vivo, mouse. As to conditions: LPS injected, dose not given. As for the experimental part: as §1, §2
Where [4] appears, read: 3T3-L1 adipocytes, 10 min incubation.

Ends that are not written are not given here.

On to `Cn1c2ccccc2c2c3c(c4c5ccccc5n(CCC#N)c4c21)CNC3=O` [Gö6976, reference compound], for which the “effect of pretreatment on LPC-stimulated glucose uptake” value in the assay on 3T3-L1 adipocytes (2 μM Gö6976 for 30 min) was “did not alter LPC stimulation of glucose uptake”.

`Cc1noc(-c2ccc(CSCCC(=O)O)cc2)c1NC(=O)OC(C)c1ccccc1Cl` (centres unmarked) [Ki16425, reference compound]: in the assay on 3T3-L1 adipocytes (Ki16425 (LPA receptor antagonist) pretreatment), the “effect of pretreatment on LPA-stimulated glucose uptake” value is recorded as “completely inhibited”. In the assay on male ICR mice [1] (Ki16425 injected prior to administration of LPA), the “effect on the glucose lowering effect by LPA” value was “inhibited”.

As to `CCCCCCCCCCCCC/C=C/[C@@H](O)[C@@H](N)COP(=O)(O)O` [S1P], the “level of blood glucose in normal mice” value is reported as “did not lower the blood glucose level in normal mice” in the assay on male ICR mice [1] (LPA study (FIG. 11A, 11B)) and “did not lower the blood glucose level in normal mice” with male ICR mice [1] (LPS study (FIG. 7A, 7B)).

`CCCCCCCCCCCCCC(=O)OCC(O)COP(=O)([O-])OCC[N+](C)(C)C` (centres unmarked) [myristoyl LPC, myristoyl lysophosphatidylcholine]: the “stimulation of glucose uptake” value with 3T3-L1 adipocytes is listed as “stimulated glucose uptake”.

With `CCCCCCCCCCCCCCCC(=O)OC[C@@H](O)COP(=O)(O)OCCN` [palmytoyl LPE, palmytoyl lysophsophatidylethanolamine], the “stimulation of glucose uptake” value in the assay with 3T3-L1 adipocytes is given as “did not stimulate glucose uptake”. Besides, the “level of blood glucose in normal mice” value in the assay on male ICR mice [1] (LPA study (FIG. 11A, 11B)) is listed as “did not lower the blood glucose level in normal mice”; with male ICR mice [1] (LPS study (FIG. 7A, 7B)), “did not lower the blood glucose level in normal mice”.

Turning to `CCCCCCCCCCCCCCCC(=O)OC[C@@H](O)COP(=O)(O)OCC(O)CO` (some centres unmarked) [palmytoyl LPG, palmytoyl lysophosphatidylglycerol, reference compound], the “stimulation of glucose uptake” value with 3T3-L1 adipocytes is given as “did not stimulate glucose uptake”.

For the compound `CCCCCCCCCCCCCCCC(=O)OCC(O)COP(=O)(O)OC1C(O)C(O)C(O)C(O)C1O` (centres unmarked) [palmytoyl LPI, palmytoyl lyso-phosphatidylinositol, reference compound], in the assay with 3T3-L1 adipocytes, the “stimulation of glucose uptake” value was “did not stimulate glucose uptake”.

For `CC(=O)c1c(O)c(C)c(O)c(Cc2c(O)c3c(c(C(=O)/C=C/c4ccccc4)c2O)OC(C)(C)C=C3)c1O` [rottlerin, reference compound], in the assay on 3T3-L1 adipocytes (10 μM rottlerin for 30 min), the “effect of pretreatment on LPC-stimulated glucose uptake” value is on record as “completely inhibited”.

`CCCCCCCCCCCCCCCCCC(=O)OCC(O)COP(=O)([O-])OCC[N+](C)(C)C` (centres unmarked) [stearoyl LPC, stearoyl lysophosphatidylcholine, reference compound]: the “stimulation of glucose uptake” value in the assay with 3T3-L1 adipocytes is given as “did not stimulate glucose uptake”.

Turning to “CRF: Corticotrophin releasing factor (CRF), synthesized from Anygen (SEEPPISLDLTFHLLREVLEMARAEQLAQQAHSNRKLMEII; ends and bridges not checked; UniProt P06850 154-194, looked up) [reference compound]”, the “insulin-mediated IR phosphorylation” value with insulin receptor (IR) (1 μM CRF family peptide with 2 nM insulin, 1 min) was “potentate insulin-mediated IR phosphorylation”. Also, in the assay with insulin receptor (IR) (without insulin), the “IR phosphorylation by peptide alone” value is “no effect on IR phosphorylation”.

On to lysophosphatidic acid [LPA], for which, in the assay with 3T3-L1 adipocytes (20 μM, 0 to 20 min), the “incubation time at which glucose uptake was maximally increased” value worked out at 10 min. Further, in the assay on 3T3-L1 adipocytes (setting [4]), the “concentration of initial statistically significant effect on glucose uptake” value worked out at 1 µM and the “concentration of maximal effect on glucose uptake” value was 20 µM. The “time and dose dependence of glucose uptake” value with 3T3-L1 adipocytes (3T3-L1 adipocytes) was “time- and dose-dependent increase in glucose uptake”. The “Gαi dependence of glucose uptake stimulation” value with 3T3-L1 adipocytes (Gαi inhibitor pertussis toxin) is reported as “stimulates glucose uptake via to Gαi activation”. The “PI3-kinase dependence of glucose uptake stimulation” value in the assay on 3T3-L1 adipocytes (LY294002 pretreatment) was “dependent on PI3-kinase activation”. Further, in the assay on IRS1 and AKT, the Akt phosphorylation result is recorded as “stimulated Akt phosphorylation”. Besides, the “change in blood insulin levels” value in the assay on male ICR mice [2] is on record as “not due to changes in blood insulin levels”. For the same compound, in the assay on male ICR mice [1] (LPA study (FIG. 11A, 11B)), the “level of blood glucose in normal mice” value is “lowered the level of blood glucose in normal mice dose-dependently”.

For lysophosphatidylserine [LPS], in the assay with 3T3-L1 adipocytes (3T3-L1 adipocytes), the “time and dose dependence of glucose uptake” value was “stimulate glucose uptake with dose dependent manner”. Also, the “stimulation of glucose uptake” value with 3T3-L1 adipocytes was “specifically stimulated glucose uptake”. Also, the “change in blood insulin levels” value in the assay with male ICR mice [2] is listed as “not due to changes in blood insulin levels”. Moreover, the “blood glucose concentrations in STZ-treated insulin deficient mice” value in assay [3] is “significantly reduced blood glucose concentrations”. Besides, the “level of blood glucose in normal mice” value with male ICR mice [1] (LPS study (FIG. 7A, 7B)) is “lowered the level of blood glucose in normal mice dose-dependently”.
